Consider 23 compounds from US20250188040A1, “PHARMACEUTICAL COMPOSITIONS COMPRISING WRN HELICASE INHIBITORS” (Vividion Therapeutics, Inc., priority 2022, published 2025).

Where two headings read alike, the source gives them in different places.

In assay [1] the test system is HCT 116 cells. The experiment in a line: Cell growth assay (CellTiter-Glo 2.0), HCT 116 MSI-H cell line. The note with it: read-out: Cell Growth Inhibition GI50 HCT-116.
Description: (§1) The effects of compound on cellular viability were determined using the CellTiter-Glo® 2.0 Luminescent Cell Viability Assay (Promega, Madison, WI).
(§2) SW480 cells were seeded at 1,000 cells per well in Eagle's Minimum Essential Medium (EMEM) with 10% FBS. Both cell lines were seeded in a volume of 50 μL medium per well. […] The concentration range was adjusted as needed for compounds of different potencies. The cells treated with compounds were incubated for 5 days at 37° C. in 5% CO2. […] The plate was then read on a Clariostar plate reader (BMG Labtech, Cary, NC) in luminescence mode. The previously measured baseline cell viability was subtracted from the luminescence value of each well, and cell viability (% of DMSO) was plotted as a function of log compound concentration. The EC50 was then calculated for each compound using Dotmatics Software (San Diego, CA).
Assay [2] has as its target T1, WRN C727 (Homo sapiens, UniProt Q14191).
T1 construct: endogenous in cells; host or cells: OCI-AML2
The experiment in a line: Target engagement, in vitro (lysate), OCI-AML2. The assay is classed as binding. The settings on record: read-out: OCI-AML2 WRN C727 TE50 in vitro (lysate). As to the method:
Cells or cell lysates were treated with a dose response of compound followed by probe treatment, which labels solvent exposed cysteines. Proteins were enzymatically digested with trypsin and probe-labelled peptides were enriched with streptavidin. Isolated peptides were then separated using reversed-phase liquid chromatography on a C18 column (Dionex Ultimated 3000 nano-LC, Thermo). Peptides were analyzed by parallel reaction monitoring mass spectrometry (Exploris 120, Thermo).
Target engagement (%) is calculated relative to DMSO treated control samples.

For assay [3], the system named is SW480 cells. The experiment in a line: Cell growth assay (CellTiter-Glo 2.0), SW480 MSS cell line. The note with it: read-out: Cell Growth Inhibition GI50 SW480. In general terms: In ATP-based viability assays light output follows the ATP content of the culture.
Description: as §1, §2
Assay [4] has as its target hWRN(519-1227)_C-H3CV-GFP-10His (Homo sapiens, UniProt Q14191). The experiment in a line: Helicase Assay for WRN Inhibition (ATP-dependent, fluorescence based). The note with it: 30 min reaction.
[5] abbreviates: WRN Helicase IC50, 30 min preincubation with ATP.

Chain of hWRN(519-1227)_C-H3CV-GFP-10His (Q14191 519-1227): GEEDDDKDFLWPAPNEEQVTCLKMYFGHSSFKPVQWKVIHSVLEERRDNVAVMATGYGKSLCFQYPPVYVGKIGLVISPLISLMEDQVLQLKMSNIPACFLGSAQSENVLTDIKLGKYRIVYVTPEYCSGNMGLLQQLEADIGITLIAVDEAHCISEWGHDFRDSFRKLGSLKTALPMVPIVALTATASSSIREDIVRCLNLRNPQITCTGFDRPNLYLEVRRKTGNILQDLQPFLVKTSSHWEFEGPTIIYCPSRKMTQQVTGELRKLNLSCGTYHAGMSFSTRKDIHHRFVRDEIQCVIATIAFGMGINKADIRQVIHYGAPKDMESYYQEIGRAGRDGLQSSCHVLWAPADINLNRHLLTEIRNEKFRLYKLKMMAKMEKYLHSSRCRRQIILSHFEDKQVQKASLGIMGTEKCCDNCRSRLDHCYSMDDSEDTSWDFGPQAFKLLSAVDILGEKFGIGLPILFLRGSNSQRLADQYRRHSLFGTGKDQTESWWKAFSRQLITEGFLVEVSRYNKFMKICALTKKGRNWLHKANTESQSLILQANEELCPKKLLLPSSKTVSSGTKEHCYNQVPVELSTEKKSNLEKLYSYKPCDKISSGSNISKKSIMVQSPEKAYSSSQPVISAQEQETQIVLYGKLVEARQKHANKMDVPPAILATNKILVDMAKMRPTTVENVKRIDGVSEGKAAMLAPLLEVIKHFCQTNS
T1 sequence (Q14191 whole entry): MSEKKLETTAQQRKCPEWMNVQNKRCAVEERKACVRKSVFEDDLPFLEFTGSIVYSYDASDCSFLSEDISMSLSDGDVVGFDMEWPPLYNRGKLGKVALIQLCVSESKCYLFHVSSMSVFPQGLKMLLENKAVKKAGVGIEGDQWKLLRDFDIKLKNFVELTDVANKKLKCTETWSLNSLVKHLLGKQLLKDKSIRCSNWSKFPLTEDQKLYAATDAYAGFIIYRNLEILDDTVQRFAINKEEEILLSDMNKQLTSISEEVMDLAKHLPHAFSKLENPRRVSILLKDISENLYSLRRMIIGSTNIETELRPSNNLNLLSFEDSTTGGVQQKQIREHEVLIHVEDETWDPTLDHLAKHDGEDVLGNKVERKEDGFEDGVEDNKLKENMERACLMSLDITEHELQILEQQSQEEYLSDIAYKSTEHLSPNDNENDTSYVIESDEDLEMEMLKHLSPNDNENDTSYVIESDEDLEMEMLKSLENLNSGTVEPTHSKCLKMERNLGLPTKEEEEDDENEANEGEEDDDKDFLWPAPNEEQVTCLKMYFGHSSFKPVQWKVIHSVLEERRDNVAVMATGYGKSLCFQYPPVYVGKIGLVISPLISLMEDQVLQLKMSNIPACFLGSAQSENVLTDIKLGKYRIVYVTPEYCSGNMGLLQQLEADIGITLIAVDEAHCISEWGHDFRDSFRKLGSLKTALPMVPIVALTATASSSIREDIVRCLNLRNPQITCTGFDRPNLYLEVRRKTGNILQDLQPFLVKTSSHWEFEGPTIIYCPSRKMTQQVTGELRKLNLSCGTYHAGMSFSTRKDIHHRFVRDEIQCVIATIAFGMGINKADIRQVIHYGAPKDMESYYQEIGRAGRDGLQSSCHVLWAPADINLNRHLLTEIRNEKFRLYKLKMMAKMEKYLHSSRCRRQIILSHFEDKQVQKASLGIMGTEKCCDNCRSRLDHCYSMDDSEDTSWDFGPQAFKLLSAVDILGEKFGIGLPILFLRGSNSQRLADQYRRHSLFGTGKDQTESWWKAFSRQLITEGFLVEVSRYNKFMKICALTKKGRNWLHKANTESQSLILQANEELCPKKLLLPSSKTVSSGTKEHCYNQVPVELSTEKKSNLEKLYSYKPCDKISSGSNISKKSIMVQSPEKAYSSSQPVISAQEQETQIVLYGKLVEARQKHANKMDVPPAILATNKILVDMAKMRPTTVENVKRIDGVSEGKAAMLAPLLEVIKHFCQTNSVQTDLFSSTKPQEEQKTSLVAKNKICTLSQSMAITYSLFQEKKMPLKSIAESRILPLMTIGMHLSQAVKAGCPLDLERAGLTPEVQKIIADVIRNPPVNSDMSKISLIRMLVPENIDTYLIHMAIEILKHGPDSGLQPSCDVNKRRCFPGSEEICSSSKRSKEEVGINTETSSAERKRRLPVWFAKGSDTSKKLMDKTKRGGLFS

As a reminder, the GI50 is the concentration that inhibits growth by half. Consider `C[C@@H](/C=C/S(C)(=O)=O)NC(=O)c1cnc(C2CCCC2)nc1OC1CCCC1` [Example 197, (S,E)-2-cyclopentyl-4-(cyclopentyloxy)-N-(4-(methylsulfonyl)but-3-en-2-yl)pyrimidine-5-carboxamide], for which the GI50 in assay [1] (Homo sapiens, HCT-116, 120 h) is 709 nM; in assay [3] (Homo sapiens, SW480, 120 h), 6.19 µM. Besides, the IC50 in assay [2] was 6.24 µM; in assay [4] (setting [5]), 1.69 µM.

Regarding `CS(=O)(=O)/C=C/[C@@H](NC(=O)c1cnc([C@H]2C[C@H](C)C2)nc1Oc1ccccc1)C1CC1` (single isomer, unassigned) [Example 49], the 50% growth inhibitory concentration (GI50) came to 60.2 nM in assay [1] (Homo sapiens, HCT-116, 120 h) and 5.19 µM in assay [3] (Homo sapiens, SW480, 120 h). For the same compound, the IC50 in assay [2] is 0.22 µM; in assay [4] (setting [5]), 0.092 µM.

Regarding `CC(C)=Cc1ncc(C(=O)N[C@@H](C)/C=C/S(C)(=O)=O)c(Oc2ccccc2)n1` [Example 213, (S,E)-2-(2-methylprop-1-en-1-yl)-N-(4-(methylsulfonyl)but-3-en-2-yl)-4-phenoxypyrimidine-5-carboxamide], the 50% growth inhibitory concentration (GI50) worked out at 2160 nM in assay [1] (Homo sapiens, HCT-116, 120 h) and 12.7 µM in assay [3] (Homo sapiens, SW480, 120 h). For the same compound, the IC50 was greater than 100 µM in assay [2] and 11 µM in assay [4] (setting [5]).

With `CS(=O)(=O)/C=C/[C@H](CC1CC1)NC(=O)c1cnc(C2CC2)nc1Oc1ccccc1` [Example 28, (S,E)-2-cyclopropyl-N-(1-cyclopropyl-4-(methylsulfonyl)but-3-en-2-yl)-4-phenoxypyrimidine-5-carboxamide], the GI50 in assay [1] (Homo sapiens, HCT-116, 120 h) turned out to be 606 nM; in assay [3] (Homo sapiens, SW480, 120 h), 37.1 µM. The IC50 turned out to be 6.74 µM in assay [2] and 1.5 µM in assay [4] (setting [5]).

For `CC(C)(C)c1ncc(C(=O)N[C@H](/C=C/S(C)(=O)=O)C2CCC(F)(F)CC2)c(Oc2ccccc2)n1` [Example 72, (S,E)-2-(tert-butyl)-N-(1-(4,4-difluorocyclohexyl)-3-(methylsulfonyl)allyl)-4-phenoxypyrimidine-5-carboxamide], the GI50 in assay [1] (Homo sapiens, HCT-116, 120 h) worked out at 46.7 nM; in assay [3] (Homo sapiens, SW480, 120 h), 45.2 µM. In addition, the IC50 in assay [2] was 0.6 µM; in assay [4] (setting [5]) it was 0.16 µM.

Consider `CS(=O)(=O)/C=C/[C@@H](NC(=O)c1cnc(N2CC(F)C2)nc1Oc1ccccc1)C1CC1` [Example 182, (S,E)-N-(1-cyclopropyl-3-(methylsulfonyl)allyl)-2-(3-fluoroazetidin-1-yl)-4-phenoxypyrimidine-5-carboxamide], for which the 50% growth inhibitory concentration (GI50) turned out to be 108 nM in assay [1] (Homo sapiens, HCT-116, 120 h) and 19 µM in assay [3] (Homo sapiens, SW480, 120 h). Further, the IC50 in assay [2] came out at 4.86 µM; in assay [4] (setting [5]), 1.1 µM.

As for `C[C@@H](/C=C/S(C)(=O)=O)NC(=O)c1cnc(C2CCCC2)nc1Oc1cccnc1` [Example 125, (S,E)-2-cyclopentyl-N-(4-(methylsulfonyl)but-3-en-2-yl)-4-(pyridin-3-yloxy)pyrimidine-5-carboxamide], the GI50 is 3100 nM in assay [1] (Homo sapiens, HCT-116, 120 h) and greater than 10 µM in assay [3] (Homo sapiens, SW480, 120 h). The IC50 in assay [2] is 52.2 µM; in assay [4] (setting [5]), 12.5 µM.

`C[C@@H](/C=C/S(C)(=O)=O)NC(=O)c1cnc(N2CCC[C@@H]2C)nc1Oc1ccccc1` [Example 175, 2-((S)-2-methylpyrrolidin-1-yl)-N—((S,E)-4-(methylsulfonyl)but-3-en-2-yl)-4-phenoxypyrimidine-5-carboxamide]: the GI50 in assay [1] (Homo sapiens, HCT-116, 120 h) was 2200 nM; in assay [3] (Homo sapiens, SW480, 120 h), 12 µM. In addition, the IC50 in assay [2] is 20 µM; in assay [4] (setting [5]), 6.8 µM.

Consider `CS(=O)(=O)/C=C/CNC(=O)c1cnc(C2CCCC2)nc1Oc1ccc(F)cc1` [Example 112, (E)-2-cyclopentyl-4-(4-fluorophenoxy)-N-(3-(methylsulfonyl)allyl)pyrimidine-5-carboxamide], for which the GI50 in assay [1] (Homo sapiens, HCT-116, 120 h) was 4800 nM; in assay [3] (Homo sapiens, SW480, 120 h), greater than 10 µM. Moreover, the values for the IC50 in assay [2] and in assay [4] (setting [5]) were 7.43 µM and 4.6 µM, respectively.

With `C[C@@H](/C=C/S(C)(=O)=O)NC(=O)c1cnc(OC2CCCC2)nc1Oc1ccccc1` [Example 165, (S,E)-2-(cyclopentyloxy)-N-(4-(methylsulfonyl)but-3-en-2-yl)-4-phenoxypyrimidine-5-carboxamide], the GI50 in assay [1] (Homo sapiens, HCT-116, 120 h) is 2700 nM; in assay [3] (Homo sapiens, SW480, 120 h) it was greater than 10 µM. Besides, the IC50 in assay [2] was determined as 22.6 µM; in assay [4] (setting [5]), 4.1 µM.

With `CS(=O)(=O)/C=C/[C@@H](NC(=O)c1cnc(OC2CC2)nc1Oc1ccccc1)C1CC1` [Example 245, (S,E)-2-cyclopropoxy-N-(1-cyclopropyl-3-(methylsulfonyl)allyl)-4-phenoxypyrimidine-5-carboxamide], the GI50 in assay [1] (Homo sapiens, HCT-116, 120 h) amounted to 140 nM; in assay [3] (Homo sapiens, SW480, 120 h) it was 36 µM. The same compound registered an IC50 in assay [4] (setting [5]) of 1.1 µM.

For `C[C@@H](C#CC(=O)N(C)C)NC(=O)c1cnc(C(C)(F)F)nc1Oc1ccccc1` [Example 263, (S)-2-(1,1-difluoroethyl)-N-(5-(dimethylamino)-5-oxopent-3-yn-2-yl)-4-phenoxypyrimidine-5-carboxamide], the GI50 was determined as 1400 nM in assay [1] (Homo sapiens, HCT-116, 120 h) and 2.3 µM in assay [3] (Homo sapiens, SW480, 120 h). Besides, in assay [4] (setting [5]), the IC50 was determined as 5.5 µM.

In the case of `CS(=O)(=O)/C=C/[C@@H](NC(=O)c1cc(F)c(C(F)(F)C2CC2)nc1Oc1ccccc1)C1CC1` [Example 236, (S,E)-N-(1-cyclopropyl-3-(methylsulfonyl)allyl)-6-(cyclopropyldifluoromethyl)-5-fluoro-2-phenoxynicotinamide], the 50% growth inhibitory concentration (GI50) is 12 nM in assay [1] (Homo sapiens, HCT-116, 120 h) and 4.5 µM in assay [3] (Homo sapiens, SW480, 120 h). This compound registered an IC50 in assay [4] (setting [5]) of 0.042 µM.

As for `CNc1ncc(C(=O)N[C@H](/C=C/S(C)(=O)=O)C2CC2)c(Oc2ccccc2)n1` [Example 178, (S,E)-N-(1-cyclopropyl-3-(methylsulfonyl)allyl)-2-(methylamino)-4-phenoxypyrimidine-5-carboxamide], the GI50 in assay [1] (Homo sapiens, HCT-116, 120 h) is 3200 nM; in assay [3] (Homo sapiens, SW480, 120 h), 45 µM. In assay [4] (setting [5]), this compound displayed an IC50 of 15 µM.

On to `C=C(CNC(=O)c1cnc(C2CC2)nc1Oc1ccccc1)S(C)(=O)=O` [Example 287, 2-cyclopropyl-N-(2-(methylsulfonyl)allyl)-4-phenoxypyrimidine-5-carboxamide], for which the GI50 came out at 3500 nM in assay [1] (Homo sapiens, HCT-116, 120 h) and 3.9 µM in assay [3] (Homo sapiens, SW480, 120 h). Besides, in assay [4] (setting [5]), the IC50 came to 8 µM.

Take `CN(C)C(=O)C[C@@H](/C=C/S(C)(=O)=O)NC(=O)c1cnc(C(C)(C)C)nc1Oc1ccccc1` [Example 71, (S,E)-2-(tert-butyl)-N-(5-(dimethylamino)-1-(methylsulfonyl)-5-oxopent-1-en-3-yl)-4-phenoxypyrimidine-5-carboxamide]: the GI50 stood at 110 nM in assay [1] (Homo sapiens, HCT-116, 120 h) and 41.4 µM in assay [3] (Homo sapiens, SW480, 120 h). In assay [4] (setting [5]), this compound had an IC50 of 0.27 µM.

Take `CC(F)(F)c1ncc(C(=O)N[C@H](/C=C/S(C)(=O)=O)C2CCC(F)(F)CC2)c(Oc2ccccc2)n1` [Example 91, (S,E)-N-(1-(4,4-difluorocyclohexyl)-3-(methylsulfonyl)allyl)-2-(1,1-difluoroethyl)-4-phenoxypyrimidine-5-carboxamide]: the GI50 was found to be 252 nM in assay [1] (Homo sapiens, HCT-116, 120 h) and 26.1 µM in assay [3] (Homo sapiens, SW480, 120 h). Moreover, the IC50 in assay [4] (setting [5]) stood at 0.6 µM.

`CC(F)(F)c1ncc(C(=O)N[C@H](/C=C/S(C)(=O)=O)COC2CC2)c(Oc2ccccc2)n1` [Example 97, (R,E)-N-(1-cyclopropoxy-4-(methylsulfonyl)but-3-en-2-yl)-2-(1,1-difluoroethyl)-4-phenoxypyrimidine-5-carboxamide]: the GI50 amounted to 70 nM in assay [1] (Homo sapiens, HCT-116, 120 h) and 40 µM in assay [3] (Homo sapiens, SW480, 120 h). This compound returned an IC50 in assay [4] (setting [5]) of 0.22 µM.

Regarding `CS(=O)(=O)/C=C/[C@@H](NC(=O)c1cnc(OCC(F)(F)F)nc1Oc1ccccc1)C1CC1` [Example 246, (S,E)-N-(1-cyclopropyl-3-(methylsulfonyl)allyl)-4-phenoxy-2-(2,2,2-trifluoroethoxy)pyrimidine-5-carboxamide], the GI50 came out at 640 nM in assay [1] (Homo sapiens, HCT-116, 120 h) and 16 µM in assay [3] (Homo sapiens, SW480, 120 h). The IC50 in assay [4] (setting [5]) came out at 8 µM.

As for `CS(=O)(=O)/C=C/[C@@H](NC(=O)c1ccc(C(F)(F)C2CC2)nc1Oc1ccccc1)C1CC1` [Example 234, (S,E)-N-(1-cyclopropyl-3-(methylsulfonyl)allyl)-6-(cyclopropyldifluoromethyl)-2-phenoxynicotinamide], the GI50 in assay [1] (Homo sapiens, HCT-116, 120 h) worked out at 11 nM; in assay [3] (Homo sapiens, SW480, 120 h) it was 6.1 µM. The compound also returned an IC50 in assay [4] (setting [5]) of 0.056 µM.

On to `CC(C)(C)c1ncc(C(=O)NC/C=C/S(C)(=O)=O)c(O[C@H]2C[C@@H]3C[C@@H]3C2)n1` [Example 159, 4-(((1R,3s,5S)-bicyclo[3.1.0]hexan-3-yl)oxy)-2-(tert-butyl)-N—((E)-3-(methylsulfonyl)allyl)pyrimidine-5-carboxamide], for which the GI50 in assay [1] (HCT-116 (MSI-H), 5-day incubation) turned out to be 2500 nM; in assay [3] (SW480 (MSS), 5-day incubation), 12 µM. In addition, the IC50 in assay [4] (read-out: WRN Helicase IC50, 30 min preincubation with ATP) came to 6.9 µM.

On to `C[C@@H](/C=C/S(C)(=O)=O)NC(=O)c1cc2ccccc2nc1Oc1ccccc1` [Example 242, (S,E)-N-(4-(methylsulfonyl)but-3-en-2-yl)-2-phenoxyquinoline-3-carboxamide], for which the GI50 in assay [1] (Homo sapiens, HCT-116, 120 h) is 2800 nM; in assay [3] (Homo sapiens, SW480, 120 h) it was greater than 10 µM. Besides, the IC50 in assay [4] (setting [5]) is 9.8 µM.

For `CS(=O)(=O)/C=C/CNC(=O)c1cnc(C2CCCC2)nc1Oc1cccc(F)c1` [Example 111, (E)-2-cyclopentyl-4-(3-fluorophenoxy)-N-(3-(methylsulfonyl)allyl)pyrimidine-5-carboxamide], the GI50 is 4200 nM in assay [1] (Homo sapiens, HCT-116, 120 h) and greater than 10 µM in assay [3] (Homo sapiens, SW480, 120 h). This compound gave an IC50 in assay [4] (setting [5]) of 3.8 µM.
